Measurements from patent US20230109833A1, “METABOLICALLY STABLE N-ACYLAMINOOXADIAZOLES USEFUL AS ANTIBACTERIAL AGENTS” (MICROBIOTIX, INC., priority 2017, published 2023).
Converted amounts (≈) assume the structure as drawn.

Tests used:
N. gonorrhoeae = test: MIC (Table 2B); type: cell-based; details: Neisseria gonorrhoeae; Table 2B, strain not given; read-out: N. gonorrhoeae MIC
CYP2C9 = CYP2C9 (Homo sapiens, UniProt P11712)
Adenosine A2A = Adenosine A2A (Homo sapiens, UniProt P29274); type: binding; details: 10 μM compound, Hit Profile Panel
Sodium Channel, Site 2 = type: binding; details: rat; 10 μM compound; Hit Profile Panel
Prostanoid EP4 = Prostanoid EP4 (Homo sapiens, UniProt P35408); type: binding; details: 10 μM compound, Hit Profile Panel
hERG potassium channel = hERG potassium channel (Homo sapiens, UniProt Q12809)
Adenosine A1 = molecular target: T1, Adenosine A1 (Homo sapiens, UniProt P30542); type: binding; details: 10 μM compound, Hit Profile Panel
T1 sequence (P30542 1-326): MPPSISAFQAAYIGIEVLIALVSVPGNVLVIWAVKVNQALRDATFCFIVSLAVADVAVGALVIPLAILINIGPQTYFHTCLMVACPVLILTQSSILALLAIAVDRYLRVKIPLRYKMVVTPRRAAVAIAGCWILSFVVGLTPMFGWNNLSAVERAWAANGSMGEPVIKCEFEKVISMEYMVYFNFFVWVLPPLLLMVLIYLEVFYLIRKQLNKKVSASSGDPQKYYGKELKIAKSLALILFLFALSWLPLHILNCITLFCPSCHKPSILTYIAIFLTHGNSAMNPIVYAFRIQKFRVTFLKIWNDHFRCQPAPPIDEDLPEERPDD

Cannabinoid CB1 = Cannabinoid CB1 (Homo sapiens, UniProt P21554); type: binding; details: 10 μM compound, Hit Profile Panel
[1] = system: Glutamate, NMDA, Phencyclidine; type: binding; details: rat; 10 μM compound; Hit Profile Panel
Dopamine D1 = Dopamine D1 (Homo sapiens, UniProt P21728); type: binding; details: 10 μM compound, Hit Profile Panel
[2] = molecular target: Nicotinic Acetylcholine a1, Bungarotoxin (Homo sapiens, UniProt P02708+P07510+Q07001); type: binding; details: for inhibition at 10 µM: read-out: % Inhibition, Nicotinic Acetylcholine a1, Bungarotoxin
Imidazoline I2, Central = type: binding; details: rat; 10 μM compound; Hit Profile Panel
Nicotinic Acetylcholine = type: binding; details: human; 10 μM compound; Hit Profile Panel
Adrenergic α1B = molecular target: T2, Adrenergic α1B (Rattus norvegicus, UniProt P15823); type: binding; details: 10 μM compound, Hit Profile Panel
T2 sequence (P15823 1-515): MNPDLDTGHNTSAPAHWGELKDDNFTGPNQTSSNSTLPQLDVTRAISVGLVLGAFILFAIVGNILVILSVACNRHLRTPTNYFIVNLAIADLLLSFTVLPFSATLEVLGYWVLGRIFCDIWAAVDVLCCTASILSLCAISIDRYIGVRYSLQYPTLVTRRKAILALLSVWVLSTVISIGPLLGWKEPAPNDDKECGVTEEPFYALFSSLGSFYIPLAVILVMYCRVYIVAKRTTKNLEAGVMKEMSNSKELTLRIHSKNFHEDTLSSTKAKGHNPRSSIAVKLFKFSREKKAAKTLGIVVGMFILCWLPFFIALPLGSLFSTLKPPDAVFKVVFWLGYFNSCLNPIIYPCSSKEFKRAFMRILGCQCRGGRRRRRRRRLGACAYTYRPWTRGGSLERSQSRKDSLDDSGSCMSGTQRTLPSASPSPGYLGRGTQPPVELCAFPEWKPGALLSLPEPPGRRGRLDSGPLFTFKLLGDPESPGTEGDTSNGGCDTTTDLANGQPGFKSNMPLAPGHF

CYP2C19 = CYP2C19 (Homo sapiens, UniProt P33261)
CYP1A2 = CYP1A2 (Homo sapiens, UniProt P05177)
GABAA, Muscimol, Central = type: binding; details: rat; 10 μM compound; Hit Profile Panel
Potassium Channel hERG = Potassium Channel hERG (Homo sapiens, UniProt Q12809); details: 10 µM
CYP450, 2C9 = CYP450, 2C9 (Homo sapiens, UniProt P11712); details: 10 µM
CYP450, 2C19 = CYP450, 2C19 (Homo sapiens, UniProt P33261); details: 10 µM
[3] = Single dose PK (IV and PO); type: in vivo; details: mice, 10 mg/kg PO
CYP450, 1A2 = CYP450, 1A2 (Homo sapiens, UniProt P05177); details: 10 µM
Tolerability studies = type: in vivo; details: data not shown
[4] = system: MRSA strain BAA-1717 (TCH1516; USA300); test: Murine efficacy, neutropenic thigh model; type: in vivo, mouse; details: 25 mg/kg PO once 2 h after infection; CFU 24 hrs post dosage; compared to untreated controls
36 mammalian receptors = type: binding; details: 10 μM; every receptor of the panel

Adenosine A2A, sequence (P29274 whole entry): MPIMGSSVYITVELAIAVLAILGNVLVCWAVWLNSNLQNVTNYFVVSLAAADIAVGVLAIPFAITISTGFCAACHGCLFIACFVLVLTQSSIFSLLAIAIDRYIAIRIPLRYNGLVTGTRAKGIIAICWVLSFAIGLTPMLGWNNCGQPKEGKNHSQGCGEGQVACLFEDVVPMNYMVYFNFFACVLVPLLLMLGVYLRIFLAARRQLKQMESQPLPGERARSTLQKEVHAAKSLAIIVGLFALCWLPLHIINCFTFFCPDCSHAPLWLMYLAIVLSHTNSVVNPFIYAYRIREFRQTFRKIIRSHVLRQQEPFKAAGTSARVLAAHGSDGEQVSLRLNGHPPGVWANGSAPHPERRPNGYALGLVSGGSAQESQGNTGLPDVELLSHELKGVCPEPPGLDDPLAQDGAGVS
Dopamine D1, sequence (P21728 whole entry): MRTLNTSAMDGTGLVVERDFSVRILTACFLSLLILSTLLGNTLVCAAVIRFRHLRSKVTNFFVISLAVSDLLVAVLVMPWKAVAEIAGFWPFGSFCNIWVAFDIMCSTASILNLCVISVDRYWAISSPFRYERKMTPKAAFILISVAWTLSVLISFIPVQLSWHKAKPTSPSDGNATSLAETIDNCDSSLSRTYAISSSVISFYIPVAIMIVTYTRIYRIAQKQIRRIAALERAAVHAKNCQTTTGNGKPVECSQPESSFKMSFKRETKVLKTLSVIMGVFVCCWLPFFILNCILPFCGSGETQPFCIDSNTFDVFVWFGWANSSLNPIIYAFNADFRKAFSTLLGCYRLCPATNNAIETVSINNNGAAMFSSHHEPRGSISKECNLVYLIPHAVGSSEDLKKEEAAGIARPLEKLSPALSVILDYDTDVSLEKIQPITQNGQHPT
Cannabinoid CB1, sequence (P21554 whole entry): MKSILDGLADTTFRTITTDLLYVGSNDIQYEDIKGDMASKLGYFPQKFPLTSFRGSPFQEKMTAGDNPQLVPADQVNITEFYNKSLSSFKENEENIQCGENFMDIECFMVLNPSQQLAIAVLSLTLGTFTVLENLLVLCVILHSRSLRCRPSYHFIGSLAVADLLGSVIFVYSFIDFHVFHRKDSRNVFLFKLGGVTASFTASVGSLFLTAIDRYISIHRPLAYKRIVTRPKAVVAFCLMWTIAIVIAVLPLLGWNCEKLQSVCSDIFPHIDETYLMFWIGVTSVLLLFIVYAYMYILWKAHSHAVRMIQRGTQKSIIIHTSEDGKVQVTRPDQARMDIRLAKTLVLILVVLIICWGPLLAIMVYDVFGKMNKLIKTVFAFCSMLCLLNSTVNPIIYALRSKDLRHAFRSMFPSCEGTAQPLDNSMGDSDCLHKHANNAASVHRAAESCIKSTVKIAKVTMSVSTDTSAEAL
Prostanoid EP4, sequence (P35408 whole entry): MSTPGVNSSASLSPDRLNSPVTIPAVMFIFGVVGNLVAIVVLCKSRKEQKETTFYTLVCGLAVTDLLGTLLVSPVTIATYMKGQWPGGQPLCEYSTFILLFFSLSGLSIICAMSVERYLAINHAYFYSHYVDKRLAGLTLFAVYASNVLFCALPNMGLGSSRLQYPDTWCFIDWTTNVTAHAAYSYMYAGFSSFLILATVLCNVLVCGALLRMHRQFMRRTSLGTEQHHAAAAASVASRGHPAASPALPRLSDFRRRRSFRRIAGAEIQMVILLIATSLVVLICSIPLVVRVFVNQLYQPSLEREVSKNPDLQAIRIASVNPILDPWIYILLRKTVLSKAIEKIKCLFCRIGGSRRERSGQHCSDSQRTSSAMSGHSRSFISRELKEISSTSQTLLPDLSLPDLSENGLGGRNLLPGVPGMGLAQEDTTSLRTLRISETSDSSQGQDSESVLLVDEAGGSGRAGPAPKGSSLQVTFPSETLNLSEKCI
Nicotinic Acetylcholine a1, Bungarotoxin, sequence (P02708 21-457): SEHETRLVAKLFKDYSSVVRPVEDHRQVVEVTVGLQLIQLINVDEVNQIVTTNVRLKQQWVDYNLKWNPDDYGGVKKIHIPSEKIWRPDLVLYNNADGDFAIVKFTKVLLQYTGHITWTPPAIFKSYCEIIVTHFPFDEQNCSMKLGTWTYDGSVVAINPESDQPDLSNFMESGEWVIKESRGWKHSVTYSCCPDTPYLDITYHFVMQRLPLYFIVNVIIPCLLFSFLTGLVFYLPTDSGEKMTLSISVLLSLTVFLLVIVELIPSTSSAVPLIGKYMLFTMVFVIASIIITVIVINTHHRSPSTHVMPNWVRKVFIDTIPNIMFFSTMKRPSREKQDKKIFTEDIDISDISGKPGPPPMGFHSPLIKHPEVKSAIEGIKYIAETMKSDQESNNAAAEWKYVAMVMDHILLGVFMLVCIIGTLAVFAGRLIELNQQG
Nicotinic Acetylcholine a1, Bungarotoxin, sequence (P07510 23-517): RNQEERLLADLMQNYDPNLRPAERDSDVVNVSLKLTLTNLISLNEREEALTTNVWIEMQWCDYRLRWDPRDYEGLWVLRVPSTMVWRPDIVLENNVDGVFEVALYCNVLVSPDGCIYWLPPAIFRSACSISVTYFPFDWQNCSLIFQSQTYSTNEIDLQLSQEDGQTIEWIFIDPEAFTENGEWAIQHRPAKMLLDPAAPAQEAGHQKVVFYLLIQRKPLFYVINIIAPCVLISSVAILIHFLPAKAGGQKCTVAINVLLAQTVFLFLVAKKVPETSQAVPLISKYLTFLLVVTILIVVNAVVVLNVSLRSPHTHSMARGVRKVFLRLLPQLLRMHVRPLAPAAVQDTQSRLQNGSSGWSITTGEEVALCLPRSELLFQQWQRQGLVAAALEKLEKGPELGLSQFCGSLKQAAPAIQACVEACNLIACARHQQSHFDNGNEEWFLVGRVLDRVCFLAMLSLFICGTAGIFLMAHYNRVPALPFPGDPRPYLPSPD
Nicotinic Acetylcholine a1, Bungarotoxin, sequence (Q07001 22-517): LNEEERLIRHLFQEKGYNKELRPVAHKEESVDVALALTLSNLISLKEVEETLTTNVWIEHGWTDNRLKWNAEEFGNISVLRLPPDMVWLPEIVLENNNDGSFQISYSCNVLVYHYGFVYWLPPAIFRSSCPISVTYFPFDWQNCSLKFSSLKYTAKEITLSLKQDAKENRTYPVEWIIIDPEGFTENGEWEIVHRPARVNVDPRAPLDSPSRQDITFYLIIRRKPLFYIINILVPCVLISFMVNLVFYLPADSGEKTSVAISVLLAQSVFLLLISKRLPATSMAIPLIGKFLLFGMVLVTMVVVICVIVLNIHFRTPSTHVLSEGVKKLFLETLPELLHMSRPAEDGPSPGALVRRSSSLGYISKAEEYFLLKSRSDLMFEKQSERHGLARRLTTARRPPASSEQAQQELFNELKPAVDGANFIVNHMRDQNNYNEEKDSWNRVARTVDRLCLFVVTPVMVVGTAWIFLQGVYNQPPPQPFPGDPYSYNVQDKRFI
Nicotinic Acetylcholine a1, Bungarotoxin, sequence (P11230 24-501, further chain): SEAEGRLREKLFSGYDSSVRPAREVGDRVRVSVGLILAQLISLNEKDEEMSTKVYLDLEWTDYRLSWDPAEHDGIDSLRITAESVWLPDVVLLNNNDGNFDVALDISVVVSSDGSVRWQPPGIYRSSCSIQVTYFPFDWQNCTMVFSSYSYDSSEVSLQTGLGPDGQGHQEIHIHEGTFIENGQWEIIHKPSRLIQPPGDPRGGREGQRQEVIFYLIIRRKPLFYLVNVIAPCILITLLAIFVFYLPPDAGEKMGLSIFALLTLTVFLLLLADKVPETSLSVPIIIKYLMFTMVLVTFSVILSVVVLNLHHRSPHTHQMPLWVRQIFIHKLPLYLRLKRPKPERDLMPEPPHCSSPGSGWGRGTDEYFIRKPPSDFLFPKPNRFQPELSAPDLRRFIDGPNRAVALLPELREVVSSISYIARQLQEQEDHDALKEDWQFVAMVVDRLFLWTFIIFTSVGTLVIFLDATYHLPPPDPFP
CYP1A2, sequence (P05177 whole entry): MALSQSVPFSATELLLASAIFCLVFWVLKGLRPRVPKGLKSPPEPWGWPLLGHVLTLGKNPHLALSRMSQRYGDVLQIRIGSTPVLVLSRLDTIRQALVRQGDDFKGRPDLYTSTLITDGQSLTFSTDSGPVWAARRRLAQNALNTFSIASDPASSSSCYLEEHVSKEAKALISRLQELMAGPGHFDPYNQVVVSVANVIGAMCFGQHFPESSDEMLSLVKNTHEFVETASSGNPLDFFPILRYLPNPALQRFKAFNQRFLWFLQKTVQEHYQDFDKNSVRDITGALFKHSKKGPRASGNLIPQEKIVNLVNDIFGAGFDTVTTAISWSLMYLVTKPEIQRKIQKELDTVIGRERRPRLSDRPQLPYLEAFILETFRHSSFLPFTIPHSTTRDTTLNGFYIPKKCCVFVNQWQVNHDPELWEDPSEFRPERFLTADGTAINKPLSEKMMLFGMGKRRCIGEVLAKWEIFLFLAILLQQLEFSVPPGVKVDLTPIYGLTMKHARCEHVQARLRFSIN
CYP2C19, sequence (P33261 whole entry): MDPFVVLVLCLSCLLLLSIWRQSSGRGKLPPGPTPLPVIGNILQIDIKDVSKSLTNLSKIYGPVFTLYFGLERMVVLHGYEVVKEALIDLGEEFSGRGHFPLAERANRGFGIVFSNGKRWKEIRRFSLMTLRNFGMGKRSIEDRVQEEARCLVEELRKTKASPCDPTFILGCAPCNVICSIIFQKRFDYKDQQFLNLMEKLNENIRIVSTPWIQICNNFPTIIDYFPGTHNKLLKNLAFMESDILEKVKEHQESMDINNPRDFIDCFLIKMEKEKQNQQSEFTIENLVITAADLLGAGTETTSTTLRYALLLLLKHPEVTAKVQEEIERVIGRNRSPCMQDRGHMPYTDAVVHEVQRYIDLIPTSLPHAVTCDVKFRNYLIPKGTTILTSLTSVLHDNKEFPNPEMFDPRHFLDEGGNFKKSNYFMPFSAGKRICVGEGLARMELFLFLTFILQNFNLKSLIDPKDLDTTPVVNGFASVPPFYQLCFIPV
CYP450, 1A2, sequence (P05177 whole entry): as the sequence (P05177 whole entry) above

| Structure (SMILES) | inhibition at 10 µM (CYP2C9) [%] | inhibition at 10 µM (Adenosine A2A) [%] | % Inhibition, Sodium Channel, Site 2 (Sodium Channel, Site 2) [%] | inhibition at 10 µM (Prostanoid EP4) [%] | inhibition at 10 µM (hERG potassium channel) [%] | inhibition at 10 µM (Adenosine A1) [%] | inhibition at 10 µM (Cannabinoid CB1) [%] | % Inhibition, Glutamate, NMDA, Phencyclidine [1] [%] | inhibition at 10 µM (Dopamine D1) [%] | inhibition at 10 µM [2] [%] | % Inhibition, Imidazoline I2, Central (Imidazoline I2, Central) [%] | % Inhibition, Nicotinic Acetylcholine (Nicotinic Acetylcholine) [%] | inhibition at 10 µM (Adrenergic α1B) [%] | inhibition at 10 µM (CYP2C19) [%] | inhibition at 10 µM (CYP1A2) [%] | % Inhibition, GABAA, Muscimol, Central (GABAA, Muscimol, Central) [%] | other results |
| --- | --- | --- | --- | --- | --- | --- | --- | --- | --- | --- | --- | --- | --- | --- | --- | --- | --- |
| O=C(Nc1nnc(-c2ccc(F)cc2)o1)c1ccc(OC2CCCCC2)cc1 [compound 4292] | 10 | 11 | −2 | 28 | 8 | 8 | 11 | 0 | 17 | -4 | 10 | 1 | 3 | 9 | 5 | −4 | MIC (N. gonorrhoeae): 0.09 µg/mL (≈ 0.236 µM) |
| O=C(Nc1nnc(-c2ccc(F)cc2)o1)N1CCc2ccccc2C1 [MBX-4132] |  |  | 4 |  |  |  |  | −3 |  |  | 33 | −8 |  |  |  | 1 | % Inhibition, Potassium Channel hERG (Potassium Channel hERG): 64%; % Inhibition, CYP450, 2C9 (CYP450, 2C9): 10%; % Inhibition, Adenosine A2A (Adenosine A2A): 43%; % Inhibition, CYP450, 2C19 (CYP450, 2C19): 44%; bioavailability, available from oral dosing [3]: > 75%; % Inhibition, Prostanoid EP4 (Prostanoid EP4): 18%; % Inhibition, CYP450, 1A2 (CYP450, 1A2): 9%; % Inhibition, Adenosine A1 (Adenosine A1): 48%; % Inhibition, Cannabinoid CB1 (Cannabinoid CB1): 14%; % Inhibition, Dopamine D1 (Dopamine D1): −8%; % Inhibition, Nicotinic Acetylcholine a1, Bungarotoxin ([2]; human, 10 μM compound, Hit Profile Panel): 0%; elevated single dose tolerability (Tolerability studies; 100 mg/kg, PO, observed 24 h): no effects distinct from vehicle controls; multidose tolerability (Tolerability studies; seven days of dosing at 25 mg/kg, SC, BID, observed 10 days): no effects distinct from vehicle controls; % Inhibition, Adrenergic α1B (Adrenergic α1B): 21%; drop in CFU/g [4]: > 2 log |
| O=C(Nc1nnc(-c2ccc(F)cc2)o1)N1CC=C(C(F)(F)F)CC1 [compound 4347] | 4 | 3 | −5 | -4 | 0 | -4 | 0 | 5 | 5 | 2 | −5 | −4 | 7 | 8 | 2 | 4 | inhibition of the 36 mammalian receptors (36 mammalian receptors): < 50% |
